Source: ChEMBL document CHEMBL1212738, “Phenotypic and genotypic characterization of Enterobacteriaceae with decreased susceptibility to carbapenems: results from large hospital-based surveillance studies in China” (2010)
In brackets after ≈: the same amount, converted by molar mass.

Key:
Klebsiella pneumoniae [1] = assay: Antimicrobial activity against carbapenem-resistant Klebsiella pneumoniae XJ81 deficient in TEM-1, SHV-12, DHA-1, aac(6')-Ib, ompK35/36 by CLSI method; format: functional
Enterobacter cloacae [2] = assay: Antimicrobial activity against carbapenem-resistant Enterobacter cloacae SZ93 deficient in ompC by CLSI method; format: functional
Klebsiella pneumoniae [3] = assay: Antimicrobial activity against carbapenem-resistant Klebsiella pneumoniae CY75 deficient in SHV-11, DHA-1, ompK35/36 by CLSI method; format: functional
Escherichia coli [4] = assay: Antimicrobial activity against carbapenem-resistant Escherichia coli PU60 deficient in TEM-1, CMY-2, ompC/F by CLSI method; format: functional
Escherichia coli [5] = assay: Antimicrobial activity against carbapenem-resistant Escherichia coli PU102 deficient in TEM-1, CTX-M-14, CMY-2, aac(6')-Ib, ompC DEc, ompF by CLSI method; format: functional
Klebsiella pneumoniae [6] = assay: Antimicrobial activity against carbapenem-resistant Klebsiella pneumoniae ZJ70 deficient in KPC-2, SHV-11, CTX-M-14, ompK35/36 by CLSI method; format: functional
Escherichia coli [7] = assay: Antimicrobial activity against Escherichia coli PU101T expressing CMY-2 by CLSI method; format: functional
Escherichia coli [8] = assay: Antimicrobial activity against carbapenem-resistant Escherichia coli PU96 deficient in TEM-1, CTX-M-14, CMY-2, ompC/F by CLSI method; format: functional
Klebsiella pneumoniae [9] = assay: Antimicrobial activity against Klebsiella pneumoniae FZ47T expressing IMP-8, TEM-1, CTX-M-14, qnrB2, aac(6')-Ib by CLSI method; format: functional
Klebsiella pneumoniae [10] = assay: Antimicrobial activity against carbapenem-resistant Klebsiella pneumoniae SZ61 deficient in TEM-1, SHV-1a, CMY-2, ompK35/36 by CLSI method; format: functional
Citrobacter freundii [11] = assay: Antimicrobial activity against Citrobacter freundii SZ63 expressing IMP-4, qnrS1by CLSI method; format: functional
Escherichia coli [12] = assay: Antimicrobial activity against Escherichia coli C600 transconjugant WH76T expressing IMP-4, TEM-1, CTX-M-3, qnrS1 by CLSI method
Escherichia coli [13] = assay: Antimicrobial activity against carbapenem-resistant Escherichia coli PU43 deficient in TEM-1, CTX-M-14, aac(6')-Ib, ompC/F by CLSI method; format: functional
Klebsiella pneumoniae [14] = assay: Antimicrobial activity against carbapenem-resistant Klebsiella pneumoniae ZJ69 deficient in SHV-28, ompK35/36 by CLSI method; format: functional
Klebsiella pneumoniae [15] = assay: Antimicrobial activity against carbapenem-resistant Klebsiella pneumoniae GZ84 deficient in SHV-11, aac(6')-Ib-cr, ompK35 by CLSI method; format: functional
Klebsiella pneumoniae [16] = assay: Antimicrobial activity against Klebsiella pneumoniae WH97 expressing SHV-33, aac(6')-Ib, ompK35 DE by CLSI method; format: functional
Escherichia coli [17] = assay: Antimicrobial activity against Escherichia coli PU60T expressing CMY-2 by CLSI method; format: functional
Escherichia coli [18] = assay: Antimicrobial activity against Escherichia coli ZJ87T expressing KPC-2 by CLSI method; format: functional
Escherichia coli [19] = assay: Antimicrobial activity against Escherichia coli C600 transconjugant XJ81T expressing TEM-1, SHV-12, aac(6')-Ib by CLSI method
Klebsiella pneumoniae [20] = assay: Antimicrobial activity against Klebsiella pneumoniae ZJ99T expressing KPC-2, CTX-M-3, qnrS1 by CLSI method; format: functional
Enterobacter cloacae [21] = assay: Antimicrobial activity against carbapenem-resistant Enterobacter cloacae NJ91 deficient in CTX-M-14, ompC/F by CLSI method; format: functional
Klebsiella pneumoniae [22] = assay: Antimicrobial activity against Klebsiella pneumoniae WH76 expressing IMP-4, TEM-1, SHV-14, CTX-M-3, qnrS1 by CLSI method; format: functional
Citrobacter freundii [23] = assay: Antimicrobial activity against Citrobacter freundii SZ63T expressing IMP-4, qnrS1by CLSI method; format: functional
Klebsiella pneumoniae [24] = assay: Antimicrobial activity against carbapenem-resistant Klebsiella pneumoniae GZ66 deficient in SHV-11, DHA-1, ompK35/36 by CLSI method; format: functional
Klebsiella pneumoniae [25] = assay: Antimicrobial activity against Klebsiella pneumoniae GZ64 expressing IMP-4, ompK35/36 by CLSI method; format: functional
Klebsiella pneumoniae [26] = assay: Antimicrobial activity against Klebsiella pneumoniae FZ49T expressing IMP-8, TEM-1, CTX-M-14, qnrB2, aac(6')-Ib by CLSI method; format: functional
Klebsiella pneumoniae [27] = assay: Antimicrobial activity against Klebsiella pneumoniae PU104T expressing TEM-1, CTX-M-15 by CLSI method; format: functional
Enterobacter cloacae [28] = assay: Antimicrobial activity against carbapenem-resistant Enterobacter cloacae NJ88 deficient in CTX-M-14, ompC/F by CLSI method; format: functional
Klebsiella pneumoniae [29] = assay: Antimicrobial activity against carbapenem-resistant Klebsiella pneumoniae PU3 deficient in DHA-1, aac(6')-Ib-cr, ompK35/36 by CLSI method; format: functional
Klebsiella pneumoniae [30] = assay: Antimicrobial activity against carbapenem-resistant Klebsiella pneumoniae SX67 deficient in SHV-2, CTX-M-14, DHA-1, qnrB6/S1, aac(6')-Ib-cr, ompK35/36 by CLSI method; format: functional
Enterobacter cloacae [31] = assay: Antimicrobial activity against carbapenem-resistant Enterobacter cloacae NJ90 deficient in CTX-M-14, ompC/F by CLSI method; format: functional
Enterobacter cloacae [32] = assay: Antimicrobial activity against carbapenem-resistant Enterobacter cloacae RJ94 deficient in IMP-4, TEM-1, CTX-M-3, ompC by CLSI method; format: functional
Klebsiella pneumoniae [33] = assay: Antimicrobial activity against Klebsiella pneumoniae CY1T expressing SHV-11, DHA-1 by CLSI method; format: functional

SMILES	MIC (Klebsiella pneumoniae [1]) [µg/mL]	MIC (Enterobacter cloacae [2]) [µg/mL]	MIC (Klebsiella pneumoniae [3]) [µg/mL]	MIC (Escherichia coli [4]) [µg/mL]	MIC (Escherichia coli [5]) [µg/mL]	MIC (Klebsiella pneumoniae [6]) [µg/mL]	MIC (Escherichia coli [7]) [µg/mL]	MIC (Escherichia coli [8]) [µg/mL]	MIC (Klebsiella pneumoniae [9]) [µg/mL]	MIC (Klebsiella pneumoniae [10]) [µg/mL]	MIC (Citrobacter freundii [11]) [µg/mL]	MIC (Escherichia coli [12]) [µg/mL]	MIC (Escherichia coli [13]) [µg/mL]	MIC (Klebsiella pneumoniae [14]) [µg/mL]	MIC (Klebsiella pneumoniae [15]) [µg/mL]	MIC (Klebsiella pneumoniae [16]) [µg/mL]	MIC (Escherichia coli [17]) [µg/mL]	MIC (Escherichia coli [18]) [µg/mL]	MIC (Escherichia coli [19]) [µg/mL]	MIC (Klebsiella pneumoniae [20]) [µg/mL]	other results
C[C@@H](O)[C@H]1C(=O)N2C(C(=O)O)=C(S[C@@H]3CN[C@H](C(=O)Nc4cccc(C(=O)O)c4)C3)[C@H](C)[C@H]12	64 (≈ 135 µM)	0.064 (≈ 0.135 µM)	64 (≈ 135 µM)	64 (≈ 135 µM)	64 (≈ 135 µM)	> 256	0.25 (≈ 0.526 µM)	128 (≈ 269 µM)	4 (≈ 8.41 µM)	64 (≈ 135 µM)	4 (≈ 8.41 µM)	2 (≈ 4.21 µM)	32 (≈ 67.3 µM)	32 (≈ 67.3 µM)	8 (≈ 16.8 µM)	4 (≈ 8.41 µM)	0.064 (≈ 0.135 µM)	16 (≈ 33.6 µM)	0.008 (≈ 0.0168 µM)	8 (≈ 16.8 µM)	MIC (Enterobacter cloacae [21]): 128 µg/mL (≈ 269 µM); MIC (Klebsiella pneumoniae [22]): 2 µg/mL (≈ 4.21 µM); MIC (Citrobacter freundii [23]): 4 µg/mL (≈ 8.41 µM); MIC (Klebsiella pneumoniae [24]): 64 µg/mL (≈ 135 µM); MIC (Klebsiella pneumoniae [25]): 32 µg/mL (≈ 67.3 µM); MIC (Klebsiella pneumoniae [26]): 4 µg/mL (≈ 8.41 µM); MIC (Klebsiella pneumoniae [27]): 0.016 µg/mL (≈ 0.0336 µM); MIC (Enterobacter cloacae [28]): 128 µg/mL (≈ 269 µM); MIC (Klebsiella pneumoniae [29]): 64 µg/mL (≈ 135 µM); MIC (Klebsiella pneumoniae [30]): 32 µg/mL (≈ 67.3 µM); MIC (Enterobacter cloacae [31]): 128 µg/mL (≈ 269 µM); MIC (Enterobacter cloacae [32]): 32 µg/mL (≈ 67.3 µM); MIC (Klebsiella pneumoniae [33]): 0.008 µg/mL (≈ 0.0168 µM)
NCC[C@H](O)C(=O)N[C@@H]1C[C@H](N)[C@@H](O[C@H]2O[C@H](CN)[C@@H](O)[C@H](O)[C@H]2O)[C@H](O)[C@H]1O[C@H]1O[C@H](CO)[C@@H](O)[C@H](N)[C@H]1O [AMIKACIN]	16 (≈ 27.3 µM)	1 (≈ 1.71 µM)	2 (≈ 3.42 µM)	32 (≈ 54.6 µM)	64 (≈ 109 µM)	> 256	1 (≈ 1.71 µM)	2 (≈ 3.42 µM)	> 256	> 256	> 256	1 (≈ 1.71 µM)	8 (≈ 13.7 µM)	> 256	16 (≈ 27.3 µM)	1 (≈ 1.71 µM)	1 (≈ 1.71 µM)	1 (≈ 1.71 µM)	16 (≈ 27.3 µM)	2 (≈ 3.42 µM)	MIC (Enterobacter cloacae [21]): > 256 µg/mL; MIC (Klebsiella pneumoniae [22]): 1 µg/mL (≈ 1.71 µM); MIC (Citrobacter freundii [23]): > 256 µg/mL; MIC (Klebsiella pneumoniae [24]): > 256 µg/mL; MIC (Klebsiella pneumoniae [25]): 1 µg/mL (≈ 1.71 µM); MIC (Klebsiella pneumoniae [26]): > 256 µg/mL; MIC (Klebsiella pneumoniae [27]): 2 µg/mL (≈ 3.42 µM); MIC (Enterobacter cloacae [28]): > 256 µg/mL; MIC (Klebsiella pneumoniae [29]): 16 µg/mL (≈ 27.3 µM); MIC (Klebsiella pneumoniae [30]): > 256 µg/mL; MIC (Enterobacter cloacae [31]): > 256 µg/mL; MIC (Enterobacter cloacae [32]): 0.5 µg/mL (≈ 0.854 µM); MIC (Klebsiella pneumoniae [33]): > 256 µg/mL
CO/N=C(\C(=O)N[C@@H]1C(=O)N2C(C(=O)O)=C(COC(C)=O)CS[C@H]12)c1csc(N)n1 [CEFOTAXIME]	> 256	1 (≈ 2.2 µM)	> 256	256 (≈ 562 µM)	> 256	> 256	128 (≈ 281 µM)	> 256	128 (≈ 281 µM)	128 (≈ 281 µM)	> 256	256 (≈ 562 µM)	> 256	64 (≈ 141 µM)	256 (≈ 562 µM)	128 (≈ 281 µM)	16 (≈ 35.1 µM)	32 (≈ 70.3 µM)	4 (≈ 8.78 µM)	256 (≈ 562 µM)	MIC (Enterobacter cloacae [21]): > 256 µg/mL; MIC (Klebsiella pneumoniae [22]): 128 µg/mL (≈ 281 µM); MIC (Citrobacter freundii [23]): 256 µg/mL (≈ 562 µM); MIC (Klebsiella pneumoniae [24]): 128 µg/mL (≈ 281 µM); MIC (Klebsiella pneumoniae [25]): 256 µg/mL (≈ 562 µM); MIC (Klebsiella pneumoniae [26]): 128 µg/mL (≈ 281 µM); MIC (Klebsiella pneumoniae [27]): 256 µg/mL (≈ 562 µM); MIC (Enterobacter cloacae [28]): > 256 µg/mL; MIC (Klebsiella pneumoniae [29]): 128 µg/mL (≈ 281 µM); MIC (Klebsiella pneumoniae [30]): > 256 µg/mL; MIC (Enterobacter cloacae [31]): > 256 µg/mL; MIC (Enterobacter cloacae [32]): > 256 µg/mL; MIC (Klebsiella pneumoniae [33]): 4 µg/mL (≈ 8.78 µM)
CO[C@@]1(NC(=O)Cc2cccs2)C(=O)N2C(C(=O)O)=C(COC(N)=O)CS[C@@H]21 [CEFOXITIN]	> 256	> 256	> 256	> 256	> 256	128 (≈ 299 µM)	> 256	> 256	> 256	> 256	> 256	> 256	128 (≈ 299 µM)	> 256	> 256	> 256	128 (≈ 299 µM)	64 (≈ 150 µM)	16 (≈ 37.4 µM)	32 (≈ 74.9 µM)	MIC (Enterobacter cloacae [21]): > 256 µg/mL; MIC (Klebsiella pneumoniae [22]): > 256 µg/mL; MIC (Citrobacter freundii [23]): > 256 µg/mL; MIC (Klebsiella pneumoniae [24]): > 256 µg/mL; MIC (Klebsiella pneumoniae [25]): > 256 µg/mL; MIC (Klebsiella pneumoniae [26]): > 256 µg/mL; MIC (Klebsiella pneumoniae [27]): 256 µg/mL (≈ 599 µM); MIC (Enterobacter cloacae [28]): > 256 µg/mL; MIC (Klebsiella pneumoniae [29]): > 256 µg/mL; MIC (Klebsiella pneumoniae [30]): > 256 µg/mL; MIC (Enterobacter cloacae [31]): > 256 µg/mL; MIC (Enterobacter cloacae [32]): > 256 µg/mL; MIC (Klebsiella pneumoniae [33]): 64 µg/mL (≈ 150 µM)
